The term inhibition denotes the relative decrease from the control value, in per cent. Read a low inhibition as a response near the control. The term IC50 denotes the concentration needed to halve the response being measured.

For test [1], the system named is Human immunodeficiency virus type 1 reverse transcriptase (Human immunodeficiency virus 1), Q72547 [UNDEFINED MUTATION]. The note with it: time 140.0 min, at 5 mM.
Test [2] concerns the target Human immunodeficiency virus type 1 reverse transcriptase (Human immunodeficiency virus 1, UniProt Q72547). Description: Inhibition of HIV-1 reverse transcriptase RT52A mutant using ABTS as substrate preincubated with compound for 1 hr followed by template-primer addition for 1 hr and measured 20 mins after substrate addition by absorbance based Roche colorimetric assay.

For `Ic1cn[nH]c1`, in test [1], the inhibition is 24%. `N#Cc1c(N)cccc1F` showed an inhibition in test [1] of 75%.

`Brc1cn[nH]c1` displayed an inhibition in test [1] of 22%.

Regarding `O=C(O)c1cc2cc(F)ccc2[nH]1` [5-FLUOROINDOLE-2-CARBOXYLIC ACID], the inhibition in test [1] was 99%. The IC50 in test [2] turned out to be 2900 µM.

`NCCc1c(F)cccc1Cl`: in test [1], the inhibition is 99%. For the same molecule, the IC50 in test [2] worked out at 2100 µM. `NCc1cccc(Br)c1` came in with an inhibition in test [1] of 96%. Same read-out and setting: next, `O=c1[nH]cnc2cccc(F)c12`: 55%. Still for that read-out and setting: next, `Oc1ccc(C(F)(F)F)cn1`: 35%. As to `Cc1c(CO)cnn1-c1ccc(F)cc1`, the inhibition in test [1] amounted to 55%. In test [1], `CNc1ccc(C(F)(F)F)cc1N` gave an inhibition of 35%.

The molecule `Nc1ccncc1Br` gave an inhibition in test [1] of 99%. Moreover, in test [2], the IC50 worked out at 2100 µM.
